Measured values: the supplement of paper PMC11451515

Legend:
Conditions in all cases: 48 h
P12-Ichikawa [1] = assay: AUC of viability dose-response curve (% viability x log10 dose units); higher = less sensitive
In short: (§1)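 Seeding of medium-adapted leukemia cells was at 500 or 1000 cells/well in 1536-well plates, followed by 48 h at 37°C with library compounds in DMSO at 11 threefold doses from 47 μM to 0.79 nM. CellTiter-Glo One luminescence was normalised per plate to DMSO and cell-free wells and fitted as a four-parameter log-logistic function of log10 dose. Area under the curve was integrated by trapezoidal rule, with curves exceeding full viability scaled and curves failing quality control removed.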

SEM cells [2] = assay: as above
In short: as §1

NOMO1 [3] = assay: as above
In short: as §1

P12-Ichikawa [4] = assay: cell viability relative to DMSO control; higher = less cytotoxic
In short: (§2)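 Library compounds in DMSO were pin-dosed in an 11-point threefold series (47 μM to 0.79 nM) onto leukemia cells in 1536-well plates (5 μl). Plates held 500 cells/well of NOMO1 or SEM or 1000 cells/well of P12-Ichikawa, each adapted for at least four passages in each medium. Luminescence was read with CellTiter-Glo One after 48 h at 37°C. Viability means the per-plate percentage relative to DMSO wells, using cell-free wells as background.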

SEM cells [5] = assay: as above
In short: as §2

NOMO1 [6] = assay: as above
In short: as §2

Cc1nc(N)sc1-c1ccnc(Nc2ccc(N3CCOCC3)cc2)n1
AUC of viability dose-response curve
Conditions	NOMO1 [3]	P12-Ichikawa [1]	SEM cells [2]
HPLM + 10% dialyzed FBS	447	389	382
RPMI 5 mM glucose + 10% FBS	447	392	368
RPMI 5 mM glucose + 10% dialyzed FBS	432	399	359

cell viability [%]
Conditions	NOMO1 [6]	P12-Ichikawa [4]	SEM cells [5]
HPLM + 10% dialyzed FBS, 0.000781 µM	95.3	97.4	88.8
HPLM + 10% dialyzed FBS, 0.00234 µM	117	100	98.7
HPLM + 10% dialyzed FBS, 0.00702 µM	111	108	102
HPLM + 10% dialyzed FBS, 0.0211 µM	120	109	102
HPLM + 10% dialyzed FBS, 0.0632 µM	110	112	107
HPLM + 10% dialyzed FBS, 0.19 µM	114	108	107
HPLM + 10% dialyzed FBS, 0.569 µM	115	111	85.5
HPLM + 10% dialyzed FBS, 1.71 µM	112	104	83.8
HPLM + 10% dialyzed FBS, 5.12 µM	87	19.4	30.5
HPLM + 10% dialyzed FBS, 15.4 µM	79.6	25	26.2
HPLM + 10% dialyzed FBS, 46.1 µM	82.8	43.8	31.3
RPMI 5 mM glucose + 10% FBS, 0.000781 µM	93.7	92.4	78.7
RPMI 5 mM glucose + 10% FBS, 0.00234 µM	91	107	111
RPMI 5 mM glucose + 10% FBS, 0.00702 µM	96.5	105	124
RPMI 5 mM glucose + 10% FBS, 0.0211 µM	95.5	107	106
RPMI 5 mM glucose + 10% FBS, 0.0632 µM	105	114	130
RPMI 5 mM glucose + 10% FBS, 0.19 µM	114	113	107
RPMI 5 mM glucose + 10% FBS, 0.569 µM	105	109	94.9
RPMI 5 mM glucose + 10% FBS, 1.71 µM	105	116	87.1
RPMI 5 mM glucose + 10% FBS, 5.12 µM	71.2	29.3	19.1
RPMI 5 mM glucose + 10% FBS, 15.4 µM	85.2	24.6	14.2
RPMI 5 mM glucose + 10% FBS, 46.1 µM	55.5	37.6	18.1
RPMI 5 mM glucose + 10% dialyzed FBS, 0.000781 µM	95.6	97.6	81
RPMI 5 mM glucose + 10% dialyzed FBS, 0.00234 µM	112	111	95.6
RPMI 5 mM glucose + 10% dialyzed FBS, 0.00702 µM	116	112	114
RPMI 5 mM glucose + 10% dialyzed FBS, 0.0211 µM	109	109	118
RPMI 5 mM glucose + 10% dialyzed FBS, 0.0632 µM	115	112	112
RPMI 5 mM glucose + 10% dialyzed FBS, 0.19 µM	106	114	102
RPMI 5 mM glucose + 10% dialyzed FBS, 0.569 µM	110	112	81
RPMI 5 mM glucose + 10% dialyzed FBS, 1.71 µM	111	110	73.7
RPMI 5 mM glucose + 10% dialyzed FBS, 5.12 µM	69.3	35.4	22.4
RPMI 5 mM glucose + 10% dialyzed FBS, 15.4 µM	72.6	42	18.4
RPMI 5 mM glucose + 10% dialyzed FBS, 46.1 µM	61.7	38.5	17.2

C[C@]12CCC(=O)C(O)=C1CC[C@@H]1[C@@H]2CC[C@]2(C)C(=O)CC[C@@H]12
AUC of viability dose-response curve
Conditions	NOMO1 [3]	P12-Ichikawa [1]	SEM cells [2]
HPLM + 10% dialyzed FBS	467	468	473
RPMI 5 mM glucose + 10% FBS	454	455	471
RPMI 5 mM glucose + 10% dialyzed FBS	462	459	460

cell viability [%]
Conditions	NOMO1 [6]	P12-Ichikawa [4]	SEM cells [5]
HPLM + 10% dialyzed FBS, 0.000781 µM	–	122	98.8
HPLM + 10% dialyzed FBS, 0.00234 µM	–	125	113
HPLM + 10% dialyzed FBS, 0.00702 µM	–	122	110
HPLM + 10% dialyzed FBS, 0.0211 µM	–	119	114
HPLM + 10% dialyzed FBS, 0.0632 µM	–	119	120
HPLM + 10% dialyzed FBS, 0.19 µM	–	122	117
HPLM + 10% dialyzed FBS, 0.569 µM	–	128	113
HPLM + 10% dialyzed FBS, 1.71 µM	–	117	121
HPLM + 10% dialyzed FBS, 5.12 µM	–	120	108
HPLM + 10% dialyzed FBS, 15.4 µM	–	111	101
HPLM + 10% dialyzed FBS, 46.1 µM	–	104	104
RPMI 5 mM glucose + 10% FBS, 0.000781 µM	123	–	98.2
RPMI 5 mM glucose + 10% FBS, 0.00234 µM	114	–	128
RPMI 5 mM glucose + 10% FBS, 0.00702 µM	105	–	123
RPMI 5 mM glucose + 10% FBS, 0.0211 µM	123	–	106
RPMI 5 mM glucose + 10% FBS, 0.0632 µM	129	–	122
RPMI 5 mM glucose + 10% FBS, 0.19 µM	110	–	116
RPMI 5 mM glucose + 10% FBS, 0.569 µM	128	–	127
RPMI 5 mM glucose + 10% FBS, 1.71 µM	104	–	111
RPMI 5 mM glucose + 10% FBS, 5.12 µM	107	–	103
RPMI 5 mM glucose + 10% FBS, 15.4 µM	98.9	–	114
RPMI 5 mM glucose + 10% FBS, 46.1 µM	95	–	112
RPMI 5 mM glucose + 10% dialyzed FBS, 0.000781 µM	–	112	119
RPMI 5 mM glucose + 10% dialyzed FBS, 0.00234 µM	–	124	120
RPMI 5 mM glucose + 10% dialyzed FBS, 0.00702 µM	–	132	120
RPMI 5 mM glucose + 10% dialyzed FBS, 0.0211 µM	–	121	130
RPMI 5 mM glucose + 10% dialyzed FBS, 0.0632 µM	–	121	107
RPMI 5 mM glucose + 10% dialyzed FBS, 0.19 µM	–	115	112
RPMI 5 mM glucose + 10% dialyzed FBS, 0.569 µM	–	130	121
RPMI 5 mM glucose + 10% dialyzed FBS, 1.71 µM	–	126	123
RPMI 5 mM glucose + 10% dialyzed FBS, 5.12 µM	–	101	107
RPMI 5 mM glucose + 10% dialyzed FBS, 15.4 µM	–	108	116
RPMI 5 mM glucose + 10% dialyzed FBS, 46.1 µM	–	104	111

CCC1=C2CN3C(=O)\C4=C(/C=C3/C2=NC5=CC=C(O)C=C15)[C@@](O)(CC)C(=O)OC4
AUC of viability dose-response curve
Conditions	NOMO1 [3]	P12-Ichikawa [1]	SEM cells [2]
HPLM + 10% dialyzed FBS	226	109	158
RPMI 5 mM glucose + 10% FBS	211	102	137
RPMI 5 mM glucose + 10% dialyzed FBS	218	105	140

cell viability [%]
Conditions	NOMO1 [6]	P12-Ichikawa [4]	SEM cells [5]
HPLM + 10% dialyzed FBS, 0.000781 µM	102	97	96.7
HPLM + 10% dialyzed FBS, 0.00234 µM	96	95	95.6
HPLM + 10% dialyzed FBS, 0.00702 µM	97.8	33.6	91.4
HPLM + 10% dialyzed FBS, 0.0211 µM	60.5	14.5	28.1
HPLM + 10% dialyzed FBS, 0.0632 µM	27.1	9.38	19.3
HPLM + 10% dialyzed FBS, 0.19 µM	25.9	6.95	17
HPLM + 10% dialyzed FBS, 0.569 µM	28.2	6.95	11.6
HPLM + 10% dialyzed FBS, 1.71 µM	23.4	4.6	6.74
HPLM + 10% dialyzed FBS, 5.12 µM	22.8	5.03	6.74
HPLM + 10% dialyzed FBS, 15.4 µM	24.8	4.34	6.36
HPLM + 10% dialyzed FBS, 46.1 µM	27	4.16	4.6
RPMI 5 mM glucose + 10% FBS, 0.000781 µM	93	93.6	108
RPMI 5 mM glucose + 10% FBS, 0.00234 µM	95.5	91.9	102
RPMI 5 mM glucose + 10% FBS, 0.00702 µM	92.5	28.2	67.7
RPMI 5 mM glucose + 10% FBS, 0.0211 µM	91.8	10.6	25.6
RPMI 5 mM glucose + 10% FBS, 0.0632 µM	18	8.05	15.6
RPMI 5 mM glucose + 10% FBS, 0.19 µM	16.6	6.33	16.1
RPMI 5 mM glucose + 10% FBS, 0.569 µM	20.7	6.06	12.9
RPMI 5 mM glucose + 10% FBS, 1.71 µM	17.4	5.12	6.76
RPMI 5 mM glucose + 10% FBS, 5.12 µM	19.6	4.73	7.58
RPMI 5 mM glucose + 10% FBS, 15.4 µM	16.6	4.49	5.69
RPMI 5 mM glucose + 10% FBS, 46.1 µM	16.1	4.85	5.1
RPMI 5 mM glucose + 10% dialyzed FBS, 0.000781 µM	104	98.3	94.5
RPMI 5 mM glucose + 10% dialyzed FBS, 0.00234 µM	90.1	83.8	89.1
RPMI 5 mM glucose + 10% dialyzed FBS, 0.00702 µM	91.8	30.2	65
RPMI 5 mM glucose + 10% dialyzed FBS, 0.0211 µM	69.8	15.1	28
RPMI 5 mM glucose + 10% dialyzed FBS, 0.0632 µM	23.6	11	16.6
RPMI 5 mM glucose + 10% dialyzed FBS, 0.19 µM	22.5	7.31	15.2
RPMI 5 mM glucose + 10% dialyzed FBS, 0.569 µM	26.6	6.37	12.8
RPMI 5 mM glucose + 10% dialyzed FBS, 1.71 µM	21	5.25	6.01
RPMI 5 mM glucose + 10% dialyzed FBS, 5.12 µM	22.7	5.83	7.69
RPMI 5 mM glucose + 10% dialyzed FBS, 15.4 µM	22.2	5.8	5.69
RPMI 5 mM glucose + 10% dialyzed FBS, 46.1 µM	21.2	5	4.62
